From US10428044B2, “3-amino-1,5,6,7-tetrahydro-4H-indol-4-ones” (Bayer Pharma Aktiengesellschaft, priority 2014, dated 2019)
Structures can show the parent of a compound that is named as a salt.

target: (recombinant) catalytic domain of human Bub1 (amino acids 704-1085) (Homo sapiens (Human), UniProt O43683); test: Bub1 kinase assay (TR-FRET); format: biochemical; conditions: ATP 10 μM final, peptide substrate 1 μM final, 60 min at 22° C., read-out: Biological Assay: Bub1 kinase assay median IC50
Method in brief: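 Readout was TR-FRET between a Eu-labeled antibody complex recognizing phosphoserine and streptavidin-XL665 on the biotinylated peptide, after EDTA stop and 1 h at 22° C. The kinase reaction ran for 60 min at 22° C. Values are means or medians of repeat tests, from 4-parameter fits normalized to enzyme-free and inhibitor-free controls.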

Chain of (recombinant) catalytic domain of human Bub1 (amino acids 704-1085) (O43683 704-1085): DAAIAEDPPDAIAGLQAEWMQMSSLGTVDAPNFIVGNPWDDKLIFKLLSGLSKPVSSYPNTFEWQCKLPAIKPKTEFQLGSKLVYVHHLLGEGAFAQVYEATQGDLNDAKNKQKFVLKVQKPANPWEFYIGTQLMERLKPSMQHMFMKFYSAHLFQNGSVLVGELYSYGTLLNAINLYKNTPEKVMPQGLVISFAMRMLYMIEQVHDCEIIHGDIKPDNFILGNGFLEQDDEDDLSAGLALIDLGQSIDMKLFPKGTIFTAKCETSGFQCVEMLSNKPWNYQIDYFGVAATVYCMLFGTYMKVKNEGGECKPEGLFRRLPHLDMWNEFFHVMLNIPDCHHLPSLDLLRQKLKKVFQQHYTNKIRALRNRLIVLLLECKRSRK

Compound	IC50
CCn1c2c(c(Nc3ccccc3)c1-c1ccncc1)C(=O)CC(C)(C)C2 [Example 181, 1-ethyl-6,6-dimethyl-3-(phenylamino)-2-(pyridin-4-yl)-1,5,6,7-tetrahydro-4H-indol-4-one]	0.0327 µM
CCCn1c2c(c(Nc3ccccc3)c1-c1ccncc1)C(=O)CC(C)(C)C2 [Example 182, 6,6-dimethyl-3-(phenylamino)-1-propyl-2-(pyridin-4-yl)-1,5,6,7-tetrahydro-4H-indol-4-one]	0.0689 µM
CC1(C)CC(=O)c2c(Nc3ccccc3)c(-c3ccncc3)n(CCO)c2C1 [Example 184, 1-(2-hydroxyethyl)-6,6-dimethyl-3-(phenylamino)-2-(pyridin-4-yl)-1,5,6,7-tetrahydro-4H-indol-4-one]	0.2 µM
CC1(C)CC(=O)c2c(Nc3ccccc3)c(-c3ccncc3)n(CC(N)=O)c2C1 [Example 185, 2-[3-anilino-6,6-dimethyl-4-oxo-2-(pyridin-4-yl)-4,5,6,7-tetrahydro-1H-indol-1-yl]acetamide formic acid salt]	1.3 µM
CC1(C)CC(=O)c2c(Nc3ccccc3)c(-c3ccncc3)n(Cc3ccccc3)c2C1 [Example 186, 1-benzyl-6,6-dimethyl-3-(phenylamino)-2-(pyridin-4-yl)-1,5,6,7-tetrahydro-4H-indol-4-one]	2.94 µM
CCn1c2c(c(Nc3ccccc3)c1-c1ccnc(NC(C)=O)c1)C(=O)CC(C)(C)C2 [Example 187, N-{4-[1-ethyl-6,6-dimethyl-4-oxo-3-(phenylamino)-4,5,6,7-tetrahydro-1H-indol-2-yl]pyridin-2-yl}acetamide]	0.0523 µM
CC1(C)CC(=O)c2c(Nc3ccccc3)c(-c3ccncc3)n(CC(F)F)c2C1 [Example 188, 1-(2,2-difluoroethyl)-6,6-dimethyl-3-(phenylamino)-2-(pyridin-4-yl)-1,5,6,7-tetrahydro-4H-indol-4-one]	0.0506 µM
CC(C)[n+]1ccc(-c2[nH]c3c(c2Nc2ccccc2)C(=O)CC(C)(C)C3)cc1 [Example 189, 4-[6,6-dimethyl-4-oxo-3-(phenylamino)-4,5,6,7-tetrahydro-1H-indol-2-yl]-1-(propan-2-yl)pyridinium iodide]	0.259 µM
CC1(C)CC(=O)c2c([nH]c(-c3cc[n+](CC(F)(F)F)cc3)c2Nc2ccccc2)C1 [Example 190, 4-[6,6-dimethyl-4-oxo-3-(phenylamino)-4,5,6,7-tetrahydro-1H-indol-2-yl]-1-(2,2,2-trifluoroethyl)pyridinium trifluoromethanesulfonate]	0.475 µM
CC1(C)CC(=O)c2c([nH]c(-c3cc[n+](CCCO)cc3)c2Nc2ccccc2)C1 [Example 191, 4-[6,6-dimethyl-4-oxo-3-(phenylamino)-4,5,6,7-tetrahydro-1H-indol-2-yl]-1-(3-hydroxypropyl)pyridinium iodide]	0.326 µM
CC1(C)CC(=O)c2c([nH]c(-c3cc[n+](CC(F)F)cc3)c2Nc2ccccc2)C1 [Example 192, 4-[6,6-dimethyl-4-oxo-3-(phenylamino)-4,5,6,7-tetrahydro-1H-indol-2-yl]-1-(2,2-difluoroethyl)pyridinium trifluoromethanesulfonate]	1.28 µM
COC(=O)C[n+]1ccc(-c2[nH]c3c(c2Nc2ccccc2)C(=O)CC(C)(C)C3)cc1 [Example 193, 4-[6,6-dimethyl-4-oxo-3-(phenylamino)-4,5,6,7-tetrahydro-1H-indol-2-yl]-1-(2-methoxy-2-oxoethyl)pyridinium bromide]	0.921 µM
CC1(C)C/C(=N\O)c2c([nH]c(-c3ccncc3)c2Nc2ccccc2)C1 [Example 194, 4-(hydroxyimino)-6,6-dimethyl-N-phenyl-2-(pyridin-4-yl)-4,5,6,7-tetrahydro-1H-indol-3-amine]	0.042 µM
CC(=O)O/N=C1\CC(C)(C)Cc2[nH]c(-c3ccncc3)c(Nc3ccccc3)c21 [Example 195, 1-({(E)-[6,6-dimethyl-3-(phenylamino)-2-(pyridin-4-yl)-1,5,6,7-tetrahydro-4H-indol-4-ylidene]amino}oxy)ethanone]	0.102 µM
O=C1CCCc2[nH]c(-c3ccncc3Br)c(Nc3ccccc3)c21 [Example 196, 2-(3-bromopyridin-4-yl)-3-(phenylamino)-1,5,6,7-tetrahydro-4H-indol-4-one]	0.0365 µM
N#Cc1cnccc1-c1[nH]c2c(c1Nc1ccccc1)C(=O)CCC2 [Example 197, 4-[4-oxo-3-(phenylamino)-4,5,6,7-tetrahydro-1H-indol-2-yl]pyridine-3-carbonitrile]	> 20 µM
CC1(C)CC(=O)c2c([nH]c(-c3ccncc3C#N)c2Nc2cccc(F)c2)C1 [Example 198, 4-{3-[(3-fluorophenyl)amino]-6,6-dimethyl-4-oxo-4,5,6,7-tetrahydro-1H-indol-2-yl}pyridine-3-carbonitrile]	10.9 µM
CC1(C)CC(=O)c2c([nH]c(-c3ccncc3Br)c2Nc2ccccc2)C1 [Example 199, 2-(3-bromopyridin-4-yl)-6,6-dimethyl-3-(phenylamino)-1,5,6,7-tetrahydro-4H-indol-4-one]	0.012 µM

Compound	IC50
CSc1cc(-c2[nH]c3c(c2Nc2ccccc2)C(=O)CC(C)(C)C3)ccn1 [Example 200, 6,6-dimethyl-2-[2-(methylsulfanyl)pyridin-4-yl]-3-(phenylamino)-1,5,6,7-tetrahydro-4H-indol-4-one]	0.61 µM
CSc1cnccc1-c1[nH]c2c(c1Nc1ccccc1)C(=O)CC(C)(C)C2 [Example 201, 6,6-dimethyl-2-[3-(methylsulfanyl)pyridin-4-yl]-3-(phenylamino)-1,5,6,7-tetrahydro-4H-indol-4-one]	0.0474 µM
C[S+]([O-])c1cnccc1-c1[nH]c2c(c1Nc1ccccc1)C(=O)CC(C)(C)C2 (stereo not drawn) [Example 202, {4-[6,6-dimethyl-4-oxo-3-(phenylamino)-4,5,6,7-tetrahydro-1H-indol-2-yl]pyridin-3-yl}(methyl)sulfoniumolate]	1.99 µM
CC1(C)CC(=O)c2c([nH]c(-c3ccnc(N)c3)c2Nc2cccc(Br)c2)C1 [Example 203, 2-(2-aminopyridin-4-yl)-3-[(3-bromophenyl)amino]-6,6-dimethyl-1,5,6,7-tetrahydro-4H-indol-4-one]	0.115 µM
CC1(C)CC(=O)c2c([nH]c(-c3ccnc(Nc4cnn(Cc5ccccc5)c4)c3)c2Nc2ccccc2)C1 [Example 204, 2-{2-[(1-benzyl-1H-pyrazol-4-yl)amino]pyridin-4-yl}-6,6-dimethyl-3-(phenylamino)-1,5,6,7-tetrahydro-4H-indol-4-one]	0.0426 µM
Cn1cc(Nc2cc(-c3[nH]c4c(c3Nc3ccccc3)C(=O)CC(C)(C)C4)ccn2)cn1 [Example 205, 6,6-dimethyl-2-{2-[(1-methyl-1H-pyrazol-4-yl)amino]pyridin-4-yl}-3-(phenylamino)-1,5,6,7-tetrahydro-4H-indol-4-one]	0.0229 µM
Nc1cc(-c2[nH]c3c(c2Nc2ccccc2)C(=O)CC2(CC2)C3)ccn1 [Example 206, 2′-(2-aminopyridin-4-yl)-3′-(phenylamino)-1′,7′-dihydrospiro[cyclopropane-1,6′-indol]-4′(5′H)-one]	0.00973 µM
O=C1CC2(CC2)Cc2[nH]c(-c3ccnc(F)c3)c(Nc3ccccc3)c21 [Example 207, 2′-(2-fluoropyridin-4-yl)-3′-(phenylamino)-1′,7′-dihydrospiro[cyclopropane-1,6′-indol]-4′(5′H)-one]	0.00732 µM
O=C1CC2(CC2)Cc2[nH]c(-c3ccncc3F)c(Nc3ccccc3)c21 [Example 208, 2′-(3-fluoropyridin-4-yl)-3′-(phenylamino)-1′,7′-dihydrospiro[cyclopropane-1,6′-indol]-4′(5′H)-one]	0.00639 µM
Cc1cc(-c2[nH]c3c(c2Nc2ccccc2)C(=O)CC(C)(C)C3)cc(C)n1 [Example 209, 2-(2,6-dimethylpyridin-4-yl)-6,6-dimethyl-3-(phenylamino)-1,5,6,7-tetrahydro-4H-indol-4-one]	3.12 µM
CC1(C)CC(=O)c2c([nH]c(-c3ccnc4c3OCCO4)c2Nc2ccccc2)C1 [Example 210, 2-(2,3-dihydro[1,4]dioxino[2,3-b]pyridin-8-yl)-6,6-dimethyl-3-(phenylamino)-1,5,6,7-tetrahydro-4H-indol-4-one]	0.13 µM
Nc1cc(-c2[nH]c3c(c2Nc2ccc(F)cc2)C(=O)CCC3)ccn1 [Example 211, 2-(2-aminopyridin-4-yl)-3-[(4-fluorophenyl)amino]-1,5,6,7-tetrahydro-4H-indol-4-one]	0.114 µM
Nc1cc(-c2[nH]c3c(c2Nc2ccc(F)c(F)c2)C(=O)CCC3)ccn1 [Example 212, 2-(2-aminopyridin-4-yl)-3-[(3,4-difluorophenyl)amino]-1,5,6,7-tetrahydro-4H-indol-4-one]	0.22 µM
CC1(C)CC(=O)c2c([nH]c(-c3ccnc(F)c3)c2Nc2ccccc2)C1 [Example 213, 2-(2-fluoropyridin-4-yl)-6,6-dimethyl-3-(phenylamino)-1,5,6,7-tetrahydro-4H-indol-4-one]	0.0122 µM
CC1(C)CC(=O)c2c([nH]c(-c3ccnc(Cl)c3Cl)c2Nc2ccccc2)C1 [Example 214, 2-(2,3-dichloropyridin-4-yl)-6,6-dimethyl-3-(phenylamino)-1,5,6,7-tetrahydro-4H-indol-4-one]	0.0676 µM
CC1(C)CC(=O)c2c([nH]c(-c3cc(Cl)ncc3Cl)c2Nc2ccccc2)C1 [Example 215, 2-(2,5-dichloropyridin-4-yl)-6,6-dimethyl-3-(phenylamino)-1,5,6,7-tetrahydro-4H-indol-4-one]	9.68 µM
CC1(C)CC(=O)c2c([nH]c(-c3cc(Cl)nc(Cl)c3)c2Nc2ccccc2)C1 [Example 216, 2-(2,6-dichloropyridin-4-yl)-6,6-dimethyl-3-(phenylamino)-1,5,6,7-tetrahydro-4H-indol-4-one]	> 20 µM
O=C1CCCc2[nH]c(-c3cc(Cl)nc(Cl)c3)c(Nc3ccccc3)c21 [Example 217, 2-(2,6-dichloropyridin-4-yl)-3-(phenylamino)-1,5,6,7-tetrahydro-4H-indol-4-one]	> 20 µM
